Test results from patent publication US20060093690A1, “Novel therapeutic use of polypodium extracts” (Especialidades Farmaceuticas Centrum, S.A., priority 2002, published 2006).

What was measured:
Peyronie's disease = conditions: comparative clinical study; cited from earlier work
IL-10 = IL-10 production in Peyronie's patients post treatment; assay type: in vivo, human; conditions: compared with initial values
Procedure: (§1) The obtained results were statically significant.
(§2) The patients of Polypodium group were treated with 720 mg of Polypodium extract, orally, at 8-hourly intervals.
(§3) The patients of Tamoxifen group were treated with 20 mg of Tamoxifen, orally, at 24-hourly intervals.
Also, a 17% post treatment decrease in IL-10 production in Polypodium group when compared with initial values, against 79% in Tamoxifen group.

[1] = on administration; cited from earlier work
Peyronie's patients [2] = test: Clinical trial on 34 Peyronie's patients for 6 months, Polypodium versus Tamoxifen; assay type: in vivo, human
Procedure: as §1, §2, §3
The age was similar in both groups.
The plaque was assessed by physical examination and penis ecography.
Penis incurvation was assessed by photograph.

TGF-β = TGF-β production in Peyronie's patients post treatment; assay type: in vivo, human; conditions: compared with initial values, Tamoxifen group
Procedure: as §1, §2, §3
A 22% post treatment decrease in TGF-β production was found in Polypodium group when compared with initial values, against 5% in Tamoxifen group.

TFG-β expression = conditions: rats, Peyronie's disease by injection of TGF-β in penis; cited from earlier work
Peyronie's patients [3] = conditions: 60 patients, 10 months; cited from earlier work
[4] = 6 months, oral, assessed by photograph
[5] = 6 months, oral, physical examination and penis ecography

## CC/C(=C(\c1ccccc1)c1ccc(OCCN(C)C)cc1)c1ccccc1 [Tamoxifen]
Peyronie's disease
  results versus placebo: similar
IL-10
  post treatment decrease in IL-10 production: 79%
[1]
  adverse effects: diminution of sexual desire and diminution of the eyaculate
Peyronie's patients [2]; 6 months, oral
  Coital difficulty, Improv, % of patients: 40%
  Coital difficulty, Improv, number of patients: 6
  Coital difficulty, Same, % of patients: 20%
  Coital difficulty, Same, number of patients: 3
  Coital difficulty, Worse, % of patients: 40%
  Coital difficulty, Worse, number of patients: 6
  Pain, Improv, % of patients: 66%
  Pain, Improv, number of patients: 10
  Pain, Same, % of patients: 33%
  Pain, Same, number of patients: 5
  Pain, Worse, number of patients: 0
  Penis incurvation, Same, % of patients: 33%
  Penis incurvation, Same, number of patients: 5
  Penis incurvation, Worse, % of patients: 20%
  Penis incurvation, Worse, number of patients: 3
  Plaque, Same, % of patients: 53%
  Plaque, Same, number of patients: 8
  Plaque, Worse, % of patients: 20%
  Plaque, Worse, number of patients: 3
Peyronie's patients [2]; [4]
  Penis incurvation, Improv, % of patients: 46%
  Penis incurvation, Improv, number of patients: 7
Peyronie's patients [2]; [5]
  Plaque, Improv, % of patients: 27%
  Plaque, Improv, number of patients: 4
Peyronie's patients [2]; after treatment
  patients of group satisfied after treatment: 45%
TGF-β
  post treatment decrease in TGF-β production: 5%

## COc1cc2c(c(OC)c1OC)-c1ccc(OC)c(=O)cc1[C@@H](NC(C)=O)CC2 [colchicin]
TFG-β expression
  effect on TFG-β expression: reduces TFG-β expression
Peyronie's patients [3]
  penis incurvature improved, % of patients: 30%
  penis incurvature no change/unchanged, % of patients: 48%
  penis incurvature worse/deteriorated, % of patients: 22%
